# Assay results taken from patent US11292807B2 (OCEANS LTD., priority 2015, dated 2022).
# Read-outs that look alike come from different tables or passages of the source.
# Assays:
# [1] = CIMA assay, cell viability, CCD1079SK; conditions: human, Average cell viability, CCD
# [2] = tested on: CCD1079SK (fibroblast, noncancerous but proliferating); assay: CIMA assay, cell viability, CCD1079SK; conditions: CCD
# PC3 = conditions: human, 72 h, 1 ug/mL
# A549 (lung carcinoma) = assay: CIMA assay (colorimetric indicator of metabolic activity), cell viability, A549; conditions: for Average cell viability: unit assumed
# MDA-MB [3] = conditions: for Fold change in viability AVG / MDA-MB AVG: MDA-MB; for Average cell viability: human, 72 h
# MDA-MB [4] = assay: cells; conditions: Homo sapiens, read-out: Average cell viability, MDA-MB
# [5] = tested on: U373 (glioblastoma-astrocytoma); assay: CIMA assay, cell viability, U373
# [6] = 10 ug/mL, listed as 169-14-15-4
# [7] = 10 ug/mL, listed as 174-13-14-3
# [8] = 50 ug/mL, listed as 169-14-15-4
# [9] = 50 ug/mL, listed as 174-13-14-3
# [10] = 100 ug/mL, listed as 169-14-15-4
# [11] = 100 ug/mL, listed as 174-13-14-3
# [12] = A549, 1 ug/mL, listed as 174-13-14-3
# [13] = A549, 10 ug/mL, listed as 169-14-15-4
# [14] = A549, 10 ug/mL, listed as 174-13-14-3
# [15] = A549, 50 ug/mL, listed as 169-14-15-4
# [16] = A549, 50 ug/mL, listed as 174-13-14-3
# [17] = A549, 100 ug/mL, listed as 169-14-15-4
# [18] = A549, 100 ug/mL, listed as 174-13-14-3
# [19] = U373, 1 ug/mL, listed as 169-14-15-4
structure (smiles),measurement,setting,value
"CC/C=C\C/C=C\C/C=C\C/C=C\C/C=C\CCCC(=O)OCC(COC1OC(CO)C(O)C(O)C1O)OC(=O)CCCCCCCCCCCCCCC (stereo not shown) [Compound 2, MGDG C20:5/C16:0]","viability at 72 h, 1 ug/mL","[1]; CCD1079SK fibroblast cells (noncancerous, proliferating), 1 ug/mL",107%
same,"viability at 72 h, 10 ug/mL","[1]; CCD1079SK fibroblasts (noncancerous, proliferating), 10 ug/mL",99%
same,"viability at 72 h, 50 ug/mL","[1]; CCD1079SK fibroblasts (noncancerous, proliferating), 50 ug/mL",32%
same,"viability at 72 h, 100 ug/mL","[1]; CCD1079SK fibroblasts (noncancerous, proliferating), 100 ug/mL",13%
same,Fold change in viability AVG,"[2]; 1 ug/mL, listed as 169-14-15-4",1.18
same,Average cell viability,"[2]; 1 ug/mL, listed as 174-13-14-3",101%
same,Fold change in viability AVG,"[2]; 1 ug/mL, listed as 174-13-14-3",1.11
same,Fold change in viability AVG,[2]; [6],1.08
same,Average cell viability,[2]; [7],89%
same,Fold change in viability AVG,[2]; [7],0.98
same,Fold change in viability AVG,[2]; [8],0.36
same,Average cell viability,[2]; [9],20%
same,Fold change in viability AVG,[2]; [9],0.22
same,Fold change in viability AVG,[2]; [10],0.14
same,Average cell viability,[2]; [11],14%
same,Fold change in viability AVG,[2]; [11],0.15
same,Average cell viability,PC3,97%
same,Fold change in viability AVG,"A549 (lung carcinoma); A549, 1 ug/mL, listed as 169-14-15-4",1.19
same,Fold change in viability AVG,A549 (lung carcinoma); [12],1.12
same,Average cell viability,A549 (lung carcinoma); [12],96%
same,Fold change in viability AVG,A549 (lung carcinoma); [13],1.14
same,Average cell viability,A549 (lung carcinoma); [13],98%
same,Fold change in viability AVG,A549 (lung carcinoma); [14],0.60
same,Average cell viability,A549 (lung carcinoma); [14],52%
same,Fold change in viability AVG,A549 (lung carcinoma); [15],0.98
same,Average cell viability,A549 (lung carcinoma); [15],84%
same,Fold change in viability AVG,A549 (lung carcinoma); [16],0.60
same,Average cell viability,A549 (lung carcinoma); [16],51%
same,Fold change in viability AVG,A549 (lung carcinoma); [17],0.74
same,Average cell viability,A549 (lung carcinoma); [17],64%
same,Fold change in viability AVG,A549 (lung carcinoma); [18],0.41
same,Average cell viability,A549 (lung carcinoma); [18],35%
same,A549 AVG,"A549 (lung carcinoma); A549, sample at 1 ug/mL, listed as 169-14-15-4",1.19
same,A549 AVG,"A549 (lung carcinoma); A549, sample at 1 ug/mL, listed as 174-13-14-3",1.12
same,A549 AVG,"A549 (lung carcinoma); A549, sample at 10 ug/mL, listed as 169-14-15-4",1.14
same,A549 AVG,"A549 (lung carcinoma); A549, sample at 10 ug/mL, listed as 174-13-14-3",0.60
same,A549 AVG,"A549 (lung carcinoma); A549, sample at 50 ug/mL, listed as 169-14-15-4",0.98
same,A549 AVG,"A549 (lung carcinoma); A549, sample at 50 ug/mL, listed as 174-13-14-3",0.60
same,A549 AVG,"A549 (lung carcinoma); A549, sample at 100 ug/mL, listed as 169-14-15-4",0.74
same,A549 AVG,"A549 (lung carcinoma); A549, sample at 100 ug/mL, listed as 174-13-14-3",0.41
same,viability at 1 µg/mL,"A549 (lung carcinoma); Homo sapiens, A549, read-out: Average cell viability, A549, 1 ug/mL",102%
same,Fold change in viability AVG,"MDA-MB [3]; 1 ug/mL, listed as 169-14-15-4",1.09
same,Fold change in viability AVG,"MDA-MB [3]; 1 ug/mL, listed as 174-13-14-3",1.11
same,Fold change in viability AVG,MDA-MB [3]; [6],1.09
same,Fold change in viability AVG,MDA-MB [3]; [7],0.90
same,Fold change in viability AVG,MDA-MB [3]; [8],0.49
same,Fold change in viability AVG,MDA-MB [3]; [9],0.23
same,Fold change in viability AVG,MDA-MB [3]; [10],0.24
same,Fold change in viability AVG,MDA-MB [3]; [11],0.22
same,MDA-MB AVG,"MDA-MB [3]; sample at 1 ug/mL, listed as 169-14-15-4",1.09
same,MDA-MB AVG,"MDA-MB [3]; sample at 1 ug/mL, listed as 174-13-14-3",1.11
same,MDA-MB AVG,"MDA-MB [3]; sample at 10 ug/mL, listed as 169-14-15-4",1.09
same,MDA-MB AVG,"MDA-MB [3]; sample at 10 ug/mL, listed as 174-13-14-3",0.90
same,MDA-MB AVG,"MDA-MB [3]; sample at 50 ug/mL, listed as 169-14-15-4",0.49
same,MDA-MB AVG,"MDA-MB [3]; sample at 50 ug/mL, listed as 174-13-14-3",0.23
same,MDA-MB AVG,"MDA-MB [3]; sample at 100 ug/mL, listed as 169-14-15-4",0.24
same,MDA-MB AVG,"MDA-MB [3]; sample at 100 ug/mL, listed as 174-13-14-3",0.22
same,Average cell viability,MDA-MB [3]; 1 ug/mL,102%
same,Average cell viability,MDA-MB [3]; 10 ug/mL,83%
same,Average cell viability,MDA-MB [3]; 100 ug/mL,20%
same,viability at 1 µg/mL,MDA-MB [4]; 1 ug/mL,100%
same,viability at 10 µg/mL,MDA-MB [4]; 10 ug/mL,101%
same,viability at 100 µg/mL,MDA-MB [4]; 100 ug/mL,22%
same,viability at 100 µg/mL,"[5]; Homo sapiens, U373 MG, read-out: Average cell viability, U373, 100 ug/mL",8%
same,Average cell viability,[5]; [19],106%
same,Fold change in viability AVG,[5]; [19],1.08
same,Average cell viability,"[5]; U373, 1 ug/mL, listed as 174-13-14-3",85%
